Series [1] concerns the target human κ opioid receptor (Homo sapiens (Human), UniProt P41145). To be noted: read-out: Binding affinity κ (Ki, nm).
The test system of series [2] is mice. Nature of the series: In vivo behavioral studies (clinical observation assay). To be noted: 10 mg/kg SC, observed over 24 hours.
Protocol: Groups of mice (n=5 per group; >60 days; 20-25 grams weight) were dosed with vehicle (0.9% sterile saline) or test compounds (10 mg/kg free base, SC) 30 minutes before the first observation period. The occurrence of Straub tail, piloerection, hyperlocomotion, hypolocomotion, circling of the cage, sedation, breathing abnormalities, diuresis, seizure activity and occurrences of death were recorded at 0.5, 1, 2, 4, 6 and 24 hours following dosing.
This is tested with our clinical observation assay where mice are injected with 10 mg/kg subcutaneously with drug and the behaviors are noted over 24 hours.
Series [3] concerns the target T1, human μ opioid receptor (Homo sapiens (Human), UniProt P35372). It counts as biochemical. How it is done: The [^35S]GTPγS assay measures the functional properties of a compound by quantifying the level of G-protein activation following agonist binding in studies using stably transfected cells, and is considered to be a measure of the efficacy of a compound. Membranes from CHO (Chinese Hamster Ovary) cells that stably expressed the cloned human Mu opioid receptor were used in the experiments. In a final volume of 0.5 mL, 12 different concentrations of each test compound were incubated with 7.5 μg of CHO cell membranes that stably expressed the human μ opioid receptor. The assay buffer consisted of 50 mM Tris-HCl, pH 7.4, 3 mM MgCl2, 0.2 mM EGTA, 3 μM GDP, and 100 mM NaCl. The final concentration of [^35S]GTPγS was 0.080 nM. Nonspecific binding was measured by inclusion of 10 μM GTPγS. Binding was initiated by the addition of the membranes. After an incubation of 60 min at 30° C., the samples were filtered through Schleicher & Schuell No. 32 glass fiber filters. The filters were washed three times with cold 50 mM Tris-HCl, pH 7.5, and were counted in 2 mL of Ecoscint scintillation fluid.

Series [4] has as its target T1, human μ opioid receptor. To be noted: read-out: Binding affinity μ (Ki, nm).
Series [5] addresses human δ opioid receptor (Homo sapiens (Human), UniProt P41143). Nature of the series: Receptor binding, competitive displacement of [3H]naltrindole. To be noted: CHO cell membranes, cloned human receptor, 0.2 nM [3H]naltrindole. For orientation: In a radioligand displacement assay an active substance lowers the binding of a labelled ligand.
Series [6] concerns CFA-induced weight bearing deficits. Nature of the series: CFA induced weight bearing deficits in rats.
Protocol: Animals were habituated to the weight bearing test apparatus for 2 days prior to the start of the experiment. On Day 0, rats were tested in the weight bearing apparatus to measure baseline weight bearing of untreated hind paws. Following baseline testing, animals were injected intra-plantar with Complete Freund's Adjuvant (CFA). Using a syringe with a locking hub and 25 G needle, rats were injected via rear, left intra-plantar administration with 100 μL of 100% CFA (1.0 mg/ml) while under light isofluorane anesthesia. No treatment was administered to the right, rear, contralateral paw.
Intra-plantar test-compound administration was done while the animal was under light (3%) isofluorane anesthesia using 0.3 ml insulin syringe. The amount of anesthesia given to the animal during test compound administration was limited to a very short duration, so not to impede measurement of weight bearing at the 5 minute time point. On Day 1 (24 hrs post CFA), rats were tested in the weight bearing apparatus to measure CFA-induced changes in weight bearing. […] Following test compound administration, animals were retested in the weight bearing apparatus at the following time points: 5, 15, 30, 60 and 120 minutes post-test compound administration. Animals were retested on Day 2 (post-CFA) if there is a significant change in CFA induced weight bearing at the 120 minute time point on Day 1.
Series [7] has as its system formalin-induced events. The series is described as follows: Formalin model of pain. It counts as in vivo. To be noted: rats. How it is done: Nonfasted male Harlan rats were assigned to treatment group according to a randomized block study design to balance for test chamber and time of day, and day of test (if applicable). Each rat was administered either vehicle or test compound subcutaneously and then placed in their assigned test chamber and acclimated for 25-30 minutes with the chamber enclosure door left open. Data was not collected during this period. Following the acclimation period, each rat was removed individually starting with chamber 1, and dosed 5% formalin subcutaneously into the right rear paw plantar surface (formalin was made from a 37% stock solution, diluted down to 5% with saline).
Data collection started when the first rat was replaced in chamber 1 and the chamber door was closed and latched (skipped 1-minute acclimation screen on software). The number of events (also defined as “number of seconds”), defined as the number of 1-second bins with a change in dynamic force that exceeded an empirically determined threshold value (a value of arbitrary load units, which corresponded visually with rats quietly breathing or sniffing), were totaled in 5-minute intervals. In control rats, the number of events first increases within 5 minutes and then decreases during the subsequent 5 minutes (a quiescent phase) after formalin administration (Phase I, or Early Phase, of the formalin test), then increases again during the subsequent 35 minutes (Phase II, or Late Phase) of the formalin test. Formalin-induced movements detected by the system include licking and flinching of the affected paw as well as hopping and turning.
For constructing summaries for analysis of dose response curves or screens in the formalin test, the total number of events during the first 5 minutes after formalin administration was considered to be Phase I (Early Phase), and the total number of events for minutes 11 to 35 after formalin was considered to be Phase II (Late Phase). Data were analyzed using 1-way ANOVA, and comparisons of drug treatment groups were compared with control groups using appropriate, statistician-guided tests—most commonly Dunnett's for dose response curves and a Student's t-test for two-group (i.e. vehicle vs. positive control) comparison—utilizing JMP statistical software (SAS Institute Inc, Cary, N.C.). Data was expressed as means±SEM. An ED50 was calculated utilizing GraphPad Prism software.

Series [8] deals with hot plate response latency. Nature of the series: Rat hot plate model of centrally mediated analgesia. To be noted: SC 7.5 mg/kg, hot plate 52.5° C.
Protocol: Rats were then tested on the hot plate 5, 30, 60, 120, 240 and 360 minutes later. The amount of time it took to lick one hind paw is measured and is considered the response latency. The mean and SEM of the responses latencies for each experimental group were calculated and a line depicting mean hot plate latency vs. time was generated using GraphPad Prism. An increase in mean response latency above baseline following test compound administration is indicative of an antinociceptive effect.
Where [9] appears, read: CHO cell membranes, cloned human receptor, 1 nM [3H]U69,593.
Where [10] appears, read: [35S]GTPγS binding, CHO membranes.
Setting [11] is: CHO cell membranes, cloned human receptor, […] [3H]DAMGO.
[12] abbreviates: read-out: Binding affinity δ (Ki, nm).

“Also recorded” adds a separate entry of the source. Counter-ions that a name gives are not always drawn. Like-named read-outs stand apart in the source and are kept apart here.

Turning to `CN1CC[C@]23CC(=O)CC[C@@]2(O)[C@H]1Cc1ccc(C(=O)NCCc2ccc(-c4cn[nH]c4)cc2)c(O)c13` [Compound 8], the inhibition constant (Ki) in series [1] (setting [9]) was found to be 19 nM; in series [4] (setting [11]), 0.15 nM; in series [5] (setting [12]), 0.0021 µM. For the same compound, the “Clinical Observations after 10 mg/kg subcutaneous injection” value (from here on “Clinical Observations”) in series [2] is reported as “None”. Also, in series [3] (setting [10]), the “In vitro functional agonism for μ receptor Agonist?” value (from here on “In vitro functional agonism”) is reported as “Yes”.
On to `CO[C@@]12CCC(=O)C[C@@]13CCN(C)[C@@H]2Cc1ccc(C(=O)NCCc2ccc(-c4c[nH]c(=O)[nH]c4=O)cc2)c(O)c13` [Compound 7], for which the results for the inhibition constant Ki in series [1] (setting [9]), in series [4] and in series [5] (setting [12]) were 860 nM, 0.52 nM and 0.042 µM, respectively. Besides, the “Clinical Observations” value in series [2] is on record as “None”. Besides, the “In vitro functional agonism” value in series [3] is listed as “Yes”.
In the case of `CN1CC[C@]23CC(=O)CC[C@@]2(O)[C@H]1Cc1ccc(C(=O)NCCc2ccc(-c4cnc(=O)[nH]c4)cc2)c(O)c13` [Compound 11, 4,14-dihydroxy-17-methyl-6-oxo-N-{2-[4-(2-oxo-1,2-dihydropyrimidin-5-yl)phenyl]ethyl}morphinan-3-carboxamide maleate salt], the “Clinical Observations” value in series [2] was “None”. For the same compound, the “In vitro functional agonism” value in series [3] (setting [10]) is “Yes”. Also, the inhibition constant (Ki) in series [4] (setting [11]) is 1.6 nM; in series [5] (uM, read-out: Binding affinity δ (Ki)), above 1 µM.
`CN1CC[C@]23CC(=O)CC[C@@]2(O)[C@H]1Cc1ccc(C(=O)NCCc2ccc(-c4cc[nH]c(=O)c4)cc2)c(O)c13` [Compound 10, 4,14-dihydroxy-N-{2-[4-(2-hydroxypyridin-4-yl)phenyl]ethyl}-17-methyl-6-oxomorphinan-3-carboxamide]: the Ki in series [1] stood at 140 nM; in series [4] (setting [11]), 0.43 nM; in series [5] (setting [12]) it was 0.01 µM. Moreover, the “Clinical Observations” value in series [2] is reported as “None”. Further, the “In vitro functional agonism” value in series [3] (setting [10]) is given as “Yes”.
For `O=C1CC[C@@]2(O)[C@H]3Cc4ccc(C(=O)NCCc5ccc(-c6c[nH]c(=O)[nH]c6=O)cc5)c(O)c4[C@@]2(CCN3CCc2ccccc2)C1` [Compound 2, N-{2-[4-(2,4-Dioxo-1,2,3,4-tetrahydropyrimidin-5-yl)phenyl]ethyl}-4,14-dihydroxy-6-oxo-17-(2-phenylethyl)morphinan-3-carboxamide], the “Clinical Observations” value in series [2] is “None”. The “In vitro functional agonism” value in series [3] (setting [10]) was “Yes”.
On to `CN1CC[C@]23CC(=O)CC[C@@]2(O)[C@H]1Cc1ccc(C(=O)NCCc2ccc(-c4ccccc4)cc2)c(O)c13.Cl` [B, reference compound], for which the Ki worked out at 0.71 nM in series [1] (setting [9]), 0.39 nM in series [4] and 0.0054 µM in series [5] (setting [12]). The “Clinical Observations” value in series [2] is “Angioedema; Straub tail, hypolocomotion, mortality”; in series [2] (listed as Compound-B), “severe effects that reflect mu agonism in the brain; also recorded: observed mortality”. In addition, the “In vitro functional agonism” value in series [3] is listed as “Yes”.
Regarding `CN1CC[C@]23CC(=O)CC[C@@]2(O)[C@H]1Cc1ccc(C(=O)NCCc2ccc(-c4ccc(=O)[nH]c4)cc2)c(O)c13` [Compound 3], the results for the inhibition constant Ki in series [1] (setting [9]), in series [4] (setting [11]) and in series [5] (setting [12]) were 180 nM, 0.63 nM and 0.017 µM, respectively. In addition, the “Clinical Observations” value in series [2] is listed as “None”. Further, in series [3] (setting [10]), the “In vitro functional agonism” value is “Yes”.
Turning to `CN1CC[C@]23c4c5ccc(O)c4O[C@H]2[C@@H](O)C=CC3C1C5` (some centres unmarked) [A, morphine, reference compound], the “Analgesic effect with concurrent intra-plantar 75 ug naloxone methiodide” value in series [6] (10 μg/paw intra-plantar) is “significantly inhibited”. Also, the “Reversal of CFA-induced weight bearing deficits” value in series [6] (intra-plantar, 3, 10 and 30 μg/paw) is listed as “dose-dependent reversal of CFA-induced weight bearing deficits”. Moreover, the “Clinical Observations” value was “Multiple central nervous system like effects: Straub tail, hyperlocomotion, circling” in series [2] and “severe effects that reflect mu agonism in the brain” in series [2] (listed as morphine). Besides, the median effective dose (ED50) in series [7] (Rattus norvegicus, sc, subcutaneous, read-out: Formalin test ED50) was 2.4 mg/kg. For the same compound, the “Effect on early and late phase of formalin test” value in series [7] (10 mg/kg) is “completely mitigates both the early and late phase effects of formalin”. Also, the “Hot plate antinociception (response latency)” value in series [8] was determined as 60 s.
On to `C=C1CC[C@@]2(O)[C@H]3Cc4ccc(C(=O)NCCc5ccc(-c6c[nH]c(=O)[nH]c6=O)cc5)c(O)c4[C@@]2(CCN3C)C1` [Compound 6], for which the inhibition constant (Ki) in series [1] (setting [9]) is 1000 nM; in series [4] (setting [11]) it was 3.5 nM; in series [5] (setting [12]), 0.097 µM. Further, in series [2], the “Clinical Observations” value is given as “None”. The “In vitro functional agonism” value in series [3] (setting [10]) is reported as “Yes”.
In the same order, the values of `CN1CC[C@]23CC(=O)CCC2[C@H]1Cc1ccc(C(=O)NCCc2nc4ccccc4[nH]2)c(O)c13` (some centres unmarked) [Compound 9] are 400 nM, 1.7 nM, 0.28 µM, “None” and “Yes”.
For the compound `CN1CC[C@]23CC(=O)CC[C@@]2(O)[C@H]1Cc1ccc(C(=O)NCCc2nc4ccccc4[nH]2)c(O)c13` [Compound 1], the Ki was 850 nM in series [1] (setting [9]), 27 nM in series [4] and 0.49 µM in series [5] (setting [12]). Besides, the “Clinical Observations” value in series [2] is recorded as “None”. The “In vitro functional agonism” value in series [3] was “Yes”.
For the compound “(4bS,9R)—N-(4-(2,4-dioxo-1,2,3,4-tetrahydropyrimidin-5-yl)phenethyl)-4-hydroxy-11-methyl-6-oxo-6,7,8,8a,9,10-hexahydro-5H-9,4b-(epiminoethano)phenanthrene-3-carboxamide [Compound 5]”, the Ki in series [1] was determined as 680 nM; in series [4] (setting [11]), 1.7 nM; in series [5] (setting [12]) it was 0.051 µM. Besides, in series [2], the “Clinical Observations” value was “None”. For the same compound, the “In vitro functional agonism” value in series [3] (setting [10]) is given as “Yes”.

A word on the Ki: it is a dissociation constant, usually derived from enzyme kinetics or from competition with a known ligand. The ED50 is the midpoint of the dose-response relation.

Source of the values: patent publication US8962646B2, “Peripherally acting opioid compounds” (Alkermes, Inc., priority 2011, dated 2015).
